Assay results from the supplement of paper PMC10307832.

Legend:
Experiment in all cases: relative viability (nuclei count vs DMSO), 5 days (fraction); higher = more cells survive
[1] = test system: EPLC-272H
Summary of the method: (§1)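 One day after seeding in 1536-well plates, lung cancer cell lines were dosed by pin tool. Dosing was either single-drug or a fixed anchor-drug dose plus five library-drug doses (not always all listed) in √10 steps. After 5 days, nuclei were stained in one fix-and-stain step and counted on 4× images, and relative viability is the nuclei count of treated wells over that of vehicle wells, given as the median of duplicate plates.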

[2] = test system: H3255
Summary of the method: as §1

[3] = test system: HARA
Summary of the method: as §1

[4] = test system: LC-2-ad
Summary of the method: as §1

[5] = test system: LOU-NH91
Summary of the method: as §1

[6] = test system: NCI-H1650
Summary of the method: as §1

[7] = test system: NCI-H1651
Summary of the method: as §1

[8] = test system: NCI-H1975
Summary of the method: as §1

[9] = test system: NCI-H2009
Summary of the method: as §1

[10] = test system: NCI-H2023
Summary of the method: as §1

[11] = test system: NCI-H2085
Summary of the method: as §1

[12] = test system: NCI-H2087
Summary of the method: as §1

[13] = test system: NCI-H2170
Summary of the method: as §1

[14] = test system: NCI-H2228
Summary of the method: as §1

[15] = test system: NCI-H23
Summary of the method: as §1

[16] = test system: NCI-H441
Summary of the method: as §1

[17] = test system: NCI-H650
Summary of the method: as §1

[18] = test system: NCI-H727
Summary of the method: as §1

[19] = test system: NCI-H838
Summary of the method: as §1

[20] = test system: PC-3 [JPC-3]
Summary of the method: as §1

[21] = test system: SW 1573
Summary of the method: as §1

[22] = test system: UMC-11
Summary of the method: as §1

`Cc1cn(-c2cc(NC(=O)c3ccc(C)c(Nc4nccc(-c5cccnc5)n4)c3)cc(C(F)(F)F)c2)cn1` [Nilotinib] + CS(=O)(=O)N1CCN(Cc2cc3nc(-c4cccc5[nH]ncc45)nc(N4CCOCC4)c3s2)CC1 [Pictilisib] (partner 1 µM) showed a relative viability ([1]; first compound 0.001 µM) of 0.273, a relative viability ([1]; first compound 0.003162 µM) of 0.308 and a relative viability ([1]; first compound 0.01 µM) of 0.258. It also gave a relative viability ([1]; first compound 0.03162 µM) of 0.338, a relative viability ([1]; first compound 0.1 µM) of 0.258 and a relative viability ([2]; first compound 0.001 µM) of 0.44. The relative viability ([2]; first compound 0.003162 µM) was 0.438, the relative viability ([2]; first compound 0.01 µM) was 0.57 and the relative viability ([2]; first compound 0.03162 µM) was 0.416. It also gave a relative viability ([2]; first compound 0.1 µM) of 0.441, a relative viability ([3]; first compound 0.001 µM) of 0.445 and a relative viability ([3]; first compound 0.003162 µM) of 0.307. The relative viability ([3]; first compound 0.01 µM) was 0.458, the relative viability ([3]; first compound 0.03162 µM) was 0.197 and the relative viability ([3]; first compound 0.1 µM) was 0.186. The relative viability ([4]; first compound 0.001 µM) was 0.385, the relative viability ([4]; first compound 0.003162 µM) was 0.518 and the relative viability ([4]; first compound 0.01 µM) was 0.547. For the same compound, the relative viability ([4]; first compound 0.03162 µM) was 0.379, the relative viability ([4]; first compound 0.1 µM) was 0.117 and the relative viability ([5]; first compound 0.001 µM) was 0.548. For the same compound, the relative viability ([5]; first compound 0.003162 µM) was 0.537, the relative viability ([5]; first compound 0.01 µM) was 0.543 and the relative viability ([5]; first compound 0.03162 µM) was 0.483. It also gave a relative viability ([5]; first compound 0.1 µM) of 0.54, a relative viability ([6]; first compound 0.001 µM) of 0.534 and a relative viability ([6]; first compound 0.003162 µM) of 0.709. For the same compound, the relative viability ([6]; first compound 0.01 µM) was 0.562, the relative viability ([6]; first compound 0.03162 µM) was 0.546 and the relative viability ([6]; first compound 0.1 µM) was 0.288. For the same compound, the relative viability ([7]; first compound 0.001 µM) was 0.576, the relative viability ([7]; first compound 0.003162 µM) was 0.619 and the relative viability ([7]; first compound 0.01 µM) was 0.638. The relative viability ([7]; first compound 0.03162 µM) was 0.568, the relative viability ([7]; first compound 0.1 µM) was 0.308 and the relative viability ([8]; first compound 0.001 µM) was 0.299. The relative viability ([8]; first compound 0.003162 µM) was 0.358, the relative viability ([8]; first compound 0.01 µM) was 0.231 and the relative viability ([8]; first compound 0.03162 µM) was 0.312. The relative viability ([8]; first compound 0.1 µM) was 0.19, the relative viability ([9]; first compound 0.001 µM) was 0.79 and the relative viability ([9]; first compound 0.003162 µM) was 0.913. It also gave a relative viability ([9]; first compound 0.01 µM) of 0.958, a relative viability ([9]; first compound 0.03162 µM) of 0.655 and a relative viability ([9]; first compound 0.1 µM) of 0.187. The relative viability ([10]; first compound 0.001 µM) was 0.225, the relative viability ([10]; first compound 0.003162 µM) was 0.192 and the relative viability ([10]; first compound 0.01 µM) was 0.226. For the same compound, the relative viability ([10]; first compound 0.03162 µM) was 0.221, the relative viability ([10]; first compound 0.1 µM) was 0.101 and the relative viability ([11]; first compound 0.001 µM) was 0.435. It also gave a relative viability ([11]; first compound 0.003162 µM) of 0.457, a relative viability ([11]; first compound 0.01 µM) of 0.402 and a relative viability ([11]; first compound 0.03162 µM) of 0.466. The relative viability ([11]; first compound 0.1 µM) was 0.405, the relative viability ([12]; first compound 0.001 µM) was 0.759 and the relative viability ([12]; first compound 0.003162 µM) was 0.846. For the same compound, the relative viability ([12]; first compound 0.01 µM) was 0.984, the relative viability ([12]; first compound 0.03162 µM) was 0.606 and the relative viability ([12]; first compound 0.1 µM) was 0.32. It also gave a relative viability ([13]; first compound 0.001 µM) of 0.283, a relative viability ([13]; first compound 0.003162 µM) of 0.306 and a relative viability ([13]; first compound 0.01 µM) of 0.296. It also gave a relative viability ([13]; first compound 0.03162 µM) of 0.349, a relative viability ([13]; first compound 0.1 µM) of 0.299 and a relative viability ([14]; first compound 0.001 µM) of 0.27. For the same compound, the relative viability ([14]; first compound 0.003162 µM) was 0.402, the relative viability ([14]; first compound 0.01 µM) was 0.31 and the relative viability ([14]; first compound 0.03162 µM) was 0.356. It also gave a relative viability ([14]; first compound 0.1 µM) of 0.397, a relative viability ([15]; first compound 0.001 µM) of 0.411 and a relative viability ([15]; first compound 0.003162 µM) of 0.498. The relative viability ([15]; first compound 0.01 µM) was 0.546, the relative viability ([15]; first compound 0.03162 µM) was 0.348 and the relative viability ([15]; first compound 0.1 µM) was 0.403. It also gave a relative viability ([16]; first compound 0.001 µM) of 0.371, a relative viability ([16]; first compound 0.003162 µM) of 0.576 and a relative viability ([16]; first compound 0.01 µM) of 0.532. It also gave a relative viability ([16]; first compound 0.1 µM) of 0.305, a relative viability ([17]; first compound 0.001 µM) of 0.817 and a relative viability ([17]; first compound 0.003162 µM) of 0.775. The relative viability ([17]; first compound 0.01 µM) was 0.841, the relative viability ([17]; first compound 0.03162 µM) was 0.853 and the relative viability ([17]; first compound 0.1 µM) was 0.767. It also gave a relative viability ([18]; first compound 0.001 µM) of 0.382, a relative viability ([18]; first compound 0.01 µM) of 0.447 and a relative viability ([18]; first compound 0.1 µM) of 0.264. For the same compound, the relative viability ([19]; first compound 0.001 µM) was 0.408, the relative viability ([19]; first compound 0.003162 µM) was 0.491 and the relative viability ([19]; first compound 0.01 µM) was 0.335. The relative viability ([19]; first compound 0.03162 µM) was 0.41, the relative viability ([19]; first compound 0.1 µM) was 0.336 and the relative viability ([20]; first compound 0.001 µM) was 0.791. It also gave a relative viability ([20]; first compound 0.003162 µM) of 0.88, a relative viability ([20]; first compound 0.01 µM) of 0.833 and a relative viability ([20]; first compound 0.03162 µM) of 0.747. For the same compound, the relative viability ([20]; first compound 0.1 µM) was 0.342, the relative viability ([21]; first compound 0.001 µM) was 0.486 and the relative viability ([21]; first compound 0.003162 µM) was 0.652. For the same compound, the relative viability ([21]; first compound 0.01 µM) was 0.5, the relative viability ([21]; first compound 0.03162 µM) was 0.427 and the relative viability ([21]; first compound 0.1 µM) was 0.588. For the same compound, the relative viability ([22]; first compound 0.001 µM) was 0.801, the relative viability ([22]; first compound 0.003162 µM) was 1.03 and the relative viability ([22]; first compound 0.01 µM) was 0.972. It also gave a relative viability ([22]; first compound 0.1 µM) of 0.287.
